Source: PubChem BioAssay (NCI)
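Cultured in 96-well plates, cells were exposed to test compound for 48 hours across five concentrations. The concentration for 50% growth inhibition is given as GI50. TGI is the concentration that stops growth completely.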

Legend:
Test in all cases: NCI-60 cell line screen, 48 h
786-0 renal = test system: 786-0 renal
A498 renal = test system: A498 renal
A549 NSCLC = test system: A549 NSCLC
ACHN renal = test system: ACHN renal
CAKI-1 renal = test system: CAKI-1 renal
CCRF-CEM leukemia = test system: CCRF-CEM leukemia
DU-145 prostate = test system: DU-145 prostate
EKVX NSCLC = test system: EKVX NSCLC
HCC-2998 colon = test system: HCC-2998 colon
HCT-116 colon = test system: HCT-116 colon
HCT-15 colon = test system: HCT-15 colon
HL-60(TB) leukemia = test system: HL-60(TB) leukemia
HOP-62 NSCLC = test system: HOP-62 NSCLC
HOP-92 NSCLC = test system: HOP-92 NSCLC
HS 578T breast = test system: HS 578T breast
IGROV1 ovarian = test system: IGROV1 ovarian
K-562 leukemia = test system: K-562 leukemia
KM12 colon = test system: KM12 colon
LOX IMVI melanoma = test system: LOX IMVI melanoma
M14 melanoma = test system: M14 melanoma
MALME-3M melanoma = test system: MALME-3M melanoma
MDA-MB-231 breast = test system: MDA-MB-231 breast
MDA-MB-435 = test system: MDA-MB-435
MDA-MB-468 breast = test system: MDA-MB-468 breast
MOLT-4 leukemia = test system: MOLT-4 leukemia
NCI-H226 lung = test system: NCI-H226 lung
NCI-H23 lung = test system: NCI-H23 lung
NCI-H460 lung = test system: NCI-H460 lung
NCI-H522 lung = test system: NCI-H522 lung
NCI/ADR-RES ovarian = test system: NCI/ADR-RES ovarian
OVCAR-3 ovarian = test system: OVCAR-3 ovarian
OVCAR-4 ovarian = test system: OVCAR-4 ovarian
OVCAR-5 ovarian = test system: OVCAR-5 ovarian
OVCAR-8 ovarian = test system: OVCAR-8 ovarian
PC-3 prostate = test system: PC-3 prostate
RPMI-8226 leukemia = test system: RPMI-8226 leukemia
RXF 393 renal = test system: RXF 393 renal
SF-268 CNS = test system: SF-268 CNS
SF-295 CNS = test system: SF-295 CNS
SF-539 CNS = test system: SF-539 CNS
SK-MEL-2 melanoma = test system: SK-MEL-2 melanoma
SK-MEL-28 melanoma = test system: SK-MEL-28 melanoma
SK-MEL-5 melanoma = test system: SK-MEL-5 melanoma
SK-OV-3 ovarian = test system: SK-OV-3 ovarian
SN12C renal = test system: SN12C renal
SNB-19 CNS = test system: SNB-19 CNS
SR leukemia = test system: SR leukemia
SW-620 colon = test system: SW-620 colon
TK-10 renal = test system: TK-10 renal
U251 CNS = test system: U251 CNS
UACC-257 melanoma = test system: UACC-257 melanoma
UACC-62 melanoma = test system: UACC-62 melanoma
UO-31 renal = test system: UO-31 renal

With `CN(C)CCn1c2ccccc2c2nc3ccc([N+](=O)[O-])cc3nc21` as the molecule, how does the GI50 (786-0 renal) read?
Its GI50 is 1.31 µM.

And the TGI (786-0 renal)?
The TGI was 6.55 µM.

And the GI50 (A498 renal)?
The GI50 was 1.74 µM.

What about the TGI (A498 renal) of the same molecule?
Its TGI is 4.56 µM.

What about the GI50 (A549 NSCLC) of the same molecule?
The GI50 was 0.438 µM.

What about the TGI (A549 NSCLC) of the same molecule?
Its TGI is 1.83 µM.

What about the GI50 (ACHN renal) of the same molecule?
The GI50 was 0.322 µM.

And the TGI (ACHN renal)?
Its TGI is 1.1 µM.

What about the GI50 (CAKI-1 renal) of the same molecule?
Its GI50 is 0.368 µM.

And the TGI (CAKI-1 renal)?
The TGI was 2.71 µM.

What about the GI50 (CCRF-CEM leukemia) of the same molecule?
The GI50 was 0.667 µM.

And the TGI (CCRF-CEM leukemia)?
Its TGI is 4.37 µM.

What about the GI50 (DU-145 prostate) of the same molecule?
Its GI50 is 1.71 µM.

And the TGI (DU-145 prostate)?
Its TGI is 9.91 µM.

And the GI50 (EKVX NSCLC)?
Its GI50 is 1.6 µM.

What about the TGI (EKVX NSCLC) of the same molecule?
Its TGI is 5 µM.

What about the GI50 (HCC-2998 colon) of the same molecule?
Its GI50 is 1.47 µM.

And the TGI (HCC-2998 colon)?
Its TGI is 3.72 µM.

What about the GI50 (HCT-116 colon) of the same molecule?
The GI50 was 0.752 µM.

And the TGI (HCT-116 colon)?
Its TGI is 5.94 µM.

What about the GI50 (HCT-15 colon) of the same molecule?
The GI50 was 0.725 µM.

What about the TGI (HCT-15 colon) of the same molecule?
The TGI was 4.06 µM.

And the GI50 (HL-60(TB) leukemia)?
Its GI50 is 0.256 µM.

And the TGI (HL-60(TB) leukemia)?
Its TGI is 0.698 µM.

And the GI50 (HOP-62 NSCLC)?
Its GI50 is 1.08 µM.

What about the TGI (HOP-62 NSCLC) of the same molecule?
The TGI was 4.76 µM.

And the GI50 (HOP-92 NSCLC)?
The GI50 was 0.197 µM.

And the TGI (HOP-92 NSCLC)?
The TGI was 2.29 µM.

What about the GI50 (HS 578T breast) of the same molecule?
Its GI50 is 2.16 µM.

And the TGI (HS 578T breast)?
The TGI was over 100 µM.

And the GI50 (IGROV1 ovarian)?
The GI50 was 1.07 µM.

And the TGI (IGROV1 ovarian)?
Its TGI is 9.46 µM.

What about the GI50 (K-562 leukemia) of the same molecule?
The GI50 was 0.931 µM.

What about the TGI (K-562 leukemia) of the same molecule?
The TGI was 11.3 µM.

What about the GI50 (KM12 colon) of the same molecule?
Its GI50 is 1.53 µM.

What about the TGI (KM12 colon) of the same molecule?
The TGI was 9.15 µM.

And the GI50 (LOX IMVI melanoma)?
Its GI50 is 0.541 µM.

What about the TGI (LOX IMVI melanoma) of the same molecule?
Its TGI is 1.95 µM.

And the GI50 (M14 melanoma)?
Its GI50 is 1.71 µM.

What about the TGI (M14 melanoma) of the same molecule?
Its TGI is over 100 µM.

What about the GI50 (MALME-3M melanoma) of the same molecule?
The GI50 was 0.709 µM.

What about the TGI (MALME-3M melanoma) of the same molecule?
The TGI was 3.41 µM.

What about the GI50 (MDA-MB-231 breast) of the same molecule?
Its GI50 is 1.87 µM.

And the TGI (MDA-MB-231 breast)?
Its TGI is 5.7 µM.

What about the GI50 (MDA-MB-435) of the same molecule?
The GI50 was 2.3 µM.

And the TGI (MDA-MB-435)?
The TGI was over 100 µM.

And the GI50 (MDA-MB-468 breast)?
Its GI50 is 0.514 µM.

What about the TGI (MDA-MB-468 breast) of the same molecule?
The TGI was 2.27 µM.

And the GI50 (MOLT-4 leukemia)?
Its GI50 is 0.41 µM.

What about the TGI (MOLT-4 leukemia) of the same molecule?
Its TGI is 2.9 µM.

What about the GI50 (NCI-H226 lung) of the same molecule?
Its GI50 is 1.27 µM.

What about the TGI (NCI-H226 lung) of the same molecule?
The TGI was 3.26 µM.

And the GI50 (NCI-H23 lung)?
The GI50 was 1.2 µM.

And the TGI (NCI-H23 lung)?
Its TGI is 3.64 µM.

What about the GI50 (NCI-H460 lung) of the same molecule?
Its GI50 is 0.395 µM.

And the TGI (NCI-H460 lung)?
The TGI was 2.19 µM.

What about the GI50 (NCI-H522 lung) of the same molecule?
Its GI50 is 0.988 µM.

And the TGI (NCI-H522 lung)?
The TGI was 4.22 µM.

And the GI50 (NCI/ADR-RES ovarian)?
Its GI50 is 1.28 µM.

And the TGI (NCI/ADR-RES ovarian)?
The TGI was 11.9 µM.

And the GI50 (OVCAR-3 ovarian)?
Its GI50 is 2.01 µM.

And the TGI (OVCAR-3 ovarian)?
The TGI was 7.34 µM.

And the GI50 (OVCAR-4 ovarian)?
Its GI50 is 2.76 µM.

And the TGI (OVCAR-4 ovarian)?
Its TGI is over 100 µM.

What about the GI50 (OVCAR-5 ovarian) of the same molecule?
The GI50 was 2.31 µM.

What about the TGI (OVCAR-5 ovarian) of the same molecule?
The TGI was 6.51 µM.

And the GI50 (OVCAR-8 ovarian)?
The GI50 was 0.907 µM.

What about the TGI (OVCAR-8 ovarian) of the same molecule?
Its TGI is 5.51 µM.

What about the GI50 (PC-3 prostate) of the same molecule?
Its GI50 is 1.14 µM.

And the TGI (PC-3 prostate)?
Its TGI is over 100 µM.

And the GI50 (RPMI-8226 leukemia)?
Its GI50 is 1.23 µM.

What about the TGI (RPMI-8226 leukemia) of the same molecule?
The TGI was 4.3 µM.

And the GI50 (RXF 393 renal)?
The GI50 was 1.83 µM.

What about the TGI (RXF 393 renal) of the same molecule?
The TGI was 5.83 µM.

What about the GI50 (SF-268 CNS) of the same molecule?
The GI50 was 1.75 µM.

What about the TGI (SF-268 CNS) of the same molecule?
Its TGI is 13.2 µM.

And the GI50 (SF-295 CNS)?
The GI50 was 0.477 µM.

What about the TGI (SF-295 CNS) of the same molecule?
Its TGI is 3.09 µM.

What about the GI50 (SF-539 CNS) of the same molecule?
The GI50 was 0.645 µM.

And the TGI (SF-539 CNS)?
Its TGI is 3.85 µM.

What about the GI50 (SK-MEL-2 melanoma) of the same molecule?
The GI50 was 3.27 µM.

And the TGI (SK-MEL-2 melanoma)?
The TGI was 7.64 µM.

And the GI50 (SK-MEL-28 melanoma)?
The GI50 was 2.54 µM.

And the TGI (SK-MEL-28 melanoma)?
Its TGI is over 100 µM.

And the GI50 (SK-MEL-5 melanoma)?
The GI50 was 0.666 µM.

What about the TGI (SK-MEL-5 melanoma) of the same molecule?
Its TGI is 2.05 µM.

And the GI50 (SK-OV-3 ovarian)?
Its GI50 is 2.49 µM.

What about the TGI (SK-OV-3 ovarian) of the same molecule?
Its TGI is 7.5 µM.

And the GI50 (SN12C renal)?
The GI50 was 0.813 µM.

And the TGI (SN12C renal)?
Its TGI is 4.62 µM.

What about the GI50 (SNB-19 CNS) of the same molecule?
The GI50 was 2.32 µM.

What about the TGI (SNB-19 CNS) of the same molecule?
Its TGI is 10.4 µM.

And the GI50 (SR leukemia)?
Its GI50 is 0.322 µM.

What about the TGI (SR leukemia) of the same molecule?
Its TGI is 1.69 µM.

And the GI50 (SW-620 colon)?
Its GI50 is 0.691 µM.

And the TGI (SW-620 colon)?
Its TGI is over 100 µM.

What about the GI50 (TK-10 renal) of the same molecule?
The GI50 was 2.35 µM.

What about the TGI (TK-10 renal) of the same molecule?
The TGI was 6.37 µM.

And the GI50 (U251 CNS)?
Its GI50 is 0.772 µM.

What about the TGI (U251 CNS) of the same molecule?
Its TGI is 3.96 µM.

And the GI50 (UACC-257 melanoma)?
The GI50 was 1.86 µM.

What about the TGI (UACC-257 melanoma) of the same molecule?
The TGI was 5.95 µM.

What about the GI50 (UACC-62 melanoma) of the same molecule?
Its GI50 is 0.928 µM.

And the TGI (UACC-62 melanoma)?
The TGI was 2.9 µM.

What about the GI50 (UO-31 renal) of the same molecule?
The GI50 was 0.248 µM.

And the TGI (UO-31 renal)?
The TGI was 1.99 µM.
